For this assay, the system named is axonal mitochondrial transport in DRG neurons. Briefly: FRAP of Mito-GFP in distal axons of DRG neurons. It counts as cell-based, rat. The method, then:
MAG or Aggrecan exposures were performed as bath application or on coated substrates. For bath application, dissociated DRGs were cultured for 48 h and treated with 25 μg/ml of MAG-Fc (R&D Systems; 538-MG), 25 μg/ml Fc control (R&D Systems; 110-HG), or 10 μg/ml of Aggrecan (Sigma-Aldrich; A1960) for 4 h. Cultures were pretreated with either Ca^2+ chelator BAPTA-AM (3 μM; Sigma-Aldrich; A1076), ROCK inhibitor Y27632 (10 μM; Sigma-Aldrich; SCM075), HDAC6 inhibitor TubA (10 μM; R&D Systems; 6270), Thapsigargin (1 μM; Sigma-Aldrich; T9033), Rho Activator II (1 μg/ml; Cytoskeleton; CNO3), or equivalent volume DMSO 30 min before MAG-Fc, Aggrecan, or controls. For substrate-bound experiments, adult DRGs were cultured on glass bottom dishes (Greiner) that were coated with 25 μg/ml Aggrecan in addition to the laminin/poly-D-lysine substrate.
Mito-KR- and Mito-GFP-expressing DRG neurons were used for FRAP analyses at 48-72 h after transfection. To evaluate mitochondrial motility in Mito-KR-expressing neurons, Mito-KR signals were photobleached using continual exposure to an argon laser set at 594 nm for 30 s (100% laser power) The bleached ROI was then monitored for recovery using an argon laser set at 580 nm every 10 s over 16 min (13% laser power). For FRAP analyses with Mito-GFP, GFP signals were photobleached in a 50 μm ROI using an argon laser set at 488 nm every 10 s for 16 min (70% laser power). The same excitation was used for post-bleach imaging to assess recovery every 10 s for 16 min. For axon shaft FRAP experiments in Mito-GFP-expressing neurons, ROIs of ˜50 μm in length (without branches) were imaged >100 μm proximal to the growth cone. Prebleach, bleach, and post-bleach sequences were the same as for Mito-GFP above. In all cases, neurons were imaged over 40 s or more to acquire baseline Mito-KR or Mito-GFP signals before photobleaching using an argon laser (580 nm at 13% power for Mito-KR and 488 nm at 31% power for Mito-GFP).
Vesicle trafficking was quantified using differential ImageJ Difference Tracker Plug-in (Andrews et al., 2010). 50-80-μm long unbranched axon segments at approximately the mid-region between growth cone and cell body were analyzed. Kymographs were generated using ImageJ Kymograph Plug-in. For analyses of axon retraction in the CALI experiment, the distance from the distal tip of the growth cone in the pre-CALI image sequence was used as the baseline (t=1 min). The distance between the growth tip at end of the post-CALI sequence and the pre-CALI baseline was measured using LAS-X software. Movement of ≥0.5 μm toward the axon shaft was counted as retracted. Fluorescence emission of the Mito-KR post-CALI was analyzed using ImageJ. For normalizing intensities across FRAP image sets, fluorescence intensity at each time point was scaled using the LAS-X FRAP module so that the residual fluorescence signal at t=0 min (post-bleach) was set at 0 and the prebleach intensity was set at 100% for each bleached ROI. For axon shaft FRAP analyses, each 50-μm bleached ROI was divided into […], and the fluorescence intensity recovery was measured as described above. EMs at 1,900× and 4,800× magnification across the crosssectional surface of each sciatic nerve were used for in vivo analyses of mitochondrial content. A minimum of 75 unmyelinated axons was analyzed for each nerve. All unmyelinated axons from each analyzed image were included for quantitative studies. The total number of mitochondria was determined in each unmyelinated axon in the field and was divided by the total number of unmyelinated axons for all subjects. […] was determined by changes in JC-1 fluorescence. JC-1 exists either as a green fluorescent monomer at depolarized membrane potentials or as an orange-red fluorescent aggregate at hyperpolarized membrane potentials. […]

With `CN1CCc2c(c3ccccc3n2Cc2ccc(C(=O)NO)cc2)C1` [TubA, tubastatin], where the note is “1 μM thapsigargin + 10 μM TubA”, the “Mito-GFP recovery for thapsigargin-treated cultures, Myc-Miro1K105Q-expressing neurons” value is “only a modest response to TubA treatment” and the “Mito-GFP recovery for thapsigargin-treated cultures, Myc-Miro1K629Q-expressing neurons” value is “significantly increased by TubA treatment”. Moreover, the “Mito-GFP recovery in DRGs transfected with WT, K40Q or K40A α-tubulin” value (10 μM TubA vs DMSO, 960 s after bleach) is “significantly increases Mito-GFP recovery in all three conditions”. The “mitochondrial transport with combined 10 μM TubA, 3 μM BAPTA-AM and ROCK inhibitor vs each alone” value (MAG-Fc, Mito-GFP FRAP) is “did not increase mitochondrial transport above the results seen”. For the setting “Rho-Activator + 10 μM TubA”, the “effect on Rho activator-dependent decrease in mitochondrial transport” value is “prevented by treatment with TubA”. Moreover, the “effect on aggrecan-dependent decrease in Mito-GFP recovery” value (aggrecan 10 μg/ml, TubA 10 μM or Y27632 10 μM) was “prevented by treatment with TubA”. Also, where the note is “pretreatment: TubA 10 μM, Y27632 10 μM or BAPTA-AM 3 μM, 960 s after bleach”, the “effect on MAG-Fc-dependent decrease in Mito-GFP recovery / mitochondrial transport” value is recorded as “prevented by TubA pretreatment”. Further, the “effect on thapsigargin-dependent decrease in mitochondrial transport” value (thapsigargin + 10 μM TubA) is “prevented by inhibition of HDAC6”.

For the molecule `C/C=C(/C)C(=O)O[C@H]1C(C)=C2[C@H]([C@@H]1OC(=O)CCCCCCC)[C@@](C)(OC(C)=O)C[C@H](OC(=O)CCC)[C@@]1(O)[C@H]2OC(=O)[C@@]1(C)O` [thapsigargin], under “1 μM thapsigargin”, the “mitochondrial transport in DRG axons (Mito-GFP FRAP)” value is “similarly decreased mitochondrial transport”.

The values above are taken from patent publication US20210330756A1, “Acetylation of Miro1” (University of South Carolina, priority 2020, published 2021).
